Measurements published in patent US20220288156A1, “TREATMENT” (QUEEN MARY UNIVERSITY OF LONDON, priority 2019, published 2022).

Test system: cardiomyocytes
Test: Cardiomyocyte size assessment after angiotensin II
Assay type: cell-based, mouse
Settings: 1 μM angiotensin II vs vehicle
Procedure: For cardiomyocyte hypertrophy assessment, 1 μM angiotensin II (Alfa Aesar, ThermoFisher Scientific) was added to cardiomyocyte growth media post serum starvation (i.e. 6 days post-culture), and this was refreshed the next day. Images of cardiomyocytes were captured using a bright field microscope at 40× magnification at 0, 24, and 48 hours post-angiotensin II treatment and analysed using ImageJ™ software.

“angiotensin II (DRVYIHPF; Angiotensin-2; UniProt P01019 25-32, looked up) [AngII, used to mimic the molecular stress of heart failure in cardiomyocytes]” was tested, and the cardiomyocyte cell size was “significant increase in cell size”.
